{"source": "patent US7097988B1", "about": "(ADVANCED RESEARCH AND TECHNOLOGY INSTITUTE, dated 2006)", "key": {"[1]": {"target": "T1, μ-opioid receptor encoded by MOR-1 (inhibition of adenylyl cyclase) (Rattus norvegicus, UniProt P33535, V245I)", "T1 construct": "A 1.4-kilobase HindIII fragment encompassing the open reading frame from the cDNA encoding MOR-1 was cloned; expressed in transfected cells; host or cells: COS-7", "T1 sequence (P33535 whole entry V245I, the tested form may be a part)": "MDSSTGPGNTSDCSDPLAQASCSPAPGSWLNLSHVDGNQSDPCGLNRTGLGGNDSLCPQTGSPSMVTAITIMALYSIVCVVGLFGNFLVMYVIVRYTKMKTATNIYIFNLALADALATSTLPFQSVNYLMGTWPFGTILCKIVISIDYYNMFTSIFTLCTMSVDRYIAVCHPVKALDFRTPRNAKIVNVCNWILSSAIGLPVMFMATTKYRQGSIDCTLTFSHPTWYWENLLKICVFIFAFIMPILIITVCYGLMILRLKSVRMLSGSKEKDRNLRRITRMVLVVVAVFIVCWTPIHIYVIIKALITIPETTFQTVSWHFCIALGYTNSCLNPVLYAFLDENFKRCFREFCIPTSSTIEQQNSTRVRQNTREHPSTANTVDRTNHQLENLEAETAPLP", "test": "Forskolin-stimulated cAMP levels in COS-7 cells expressing MOR-1", "type": "cell-based", "settings": "100 nM DAGO, 10 μM forskolin, transfected cells, p<0.05"}, "mu opioid receptor": {"target": "T2, mu opioid receptor (Rattus norvegicus, UniProt P33535, V245I)", "T2 construct": "expressed in transfected cells", "T2 sequence (P33535 whole entry V245I)": "as the sequence (P33535 whole entry V245I, the tested form may be a part) above", "type": "biochemical", "settings": "10 μM DAMGO"}, "[2]": {"target": "T3, human μ opioid receptor coupled to G protein-activated K+ channel (Homo sapiens, UniProt P35372)", "T3 construct": "Messenger RNAs encoding both proteins (Chen and Yu, 1994) were generated by in vitro transcription and injected into Xenopus oocytes; expressed in transfected cells; host or cells: Xenopus laevis oocytes (mRNA injection)", "type": "cell-based"}, "rat μ opioid receptor": {"target": "T4, rat μ opioid receptor (Rattus norvegicus, UniProt P33535, V245I)", "T4 construct": "A plasmid containing a 1.4 kb cDNA for the rat μ opioid receptor in a mammalian expression vector pRc/CMV has been described; expressed in transfected cells", "T4 sequence (P33535 whole entry V245I)": "as the sequence (P33535 whole entry V245I, the tested form may be a part) above", "test": "Saturation binding of [3H]DAMGO, membranes of CHO cells stably expressing rat μ opioid receptor (Example VII)"}, "[3]": {"target": "T5, rat μ opioid receptor coupled to G protein-activated K+ channel (Rattus norvegicus, UniProt P33535, V245I)", "T5 construct": "A cDNA clone, MOR-1, containing the protein coding region of a rat μ opioid receptor has been described; expressed in transfected cells; host or cells: Xenopus oocytes (mRNA injection)", "T5 sequence (P33535 whole entry V245I)": "as the sequence (P33535 whole entry V245I, the tested form may be a part) above", "type": "cell-based"}, "[4]": {"target": "T6, novel member of the opioid receptor gene family (SEQ ID NO: 17) (Rattus norvegicus, UniProt P35370)", "T6 construct": "mRNA of this clone was synthesized by in vitro transcription and coinjected into Xenopus oocytes; expressed in transfected cells; host or cells: Xenopus oocytes (mRNA injection)", "type": "cell-based"}, "[5]": {"target": "T7, mu opioid receptor / voltage-activated calcium channel (Rattus norvegicus, UniProt P33535, V245I)", "T7 construct": "one cDNA clone contained an open reading frame of 1194 bp, encoding a protein of 398 amino acids; expressed in transfected cells; host or cells: Xenopus oocytes (plasmid microinjection)", "T7 sequence (P33535 whole entry V245I)": "as the sequence (P33535 whole entry V245I, the tested form may be a part) above", "test": "Barium currents in Xenopus oocytes coexpressing voltage-activated calcium channel and mu opioid receptor", "type": "cell-based", "settings": "1 μM DAMGO for 5 min, entire activation voltage range"}, "human μ opioid receptor": {"target": "human μ opioid receptor (Homo sapiens, UniProt P35372)", "sequence (P35372 whole entry)": "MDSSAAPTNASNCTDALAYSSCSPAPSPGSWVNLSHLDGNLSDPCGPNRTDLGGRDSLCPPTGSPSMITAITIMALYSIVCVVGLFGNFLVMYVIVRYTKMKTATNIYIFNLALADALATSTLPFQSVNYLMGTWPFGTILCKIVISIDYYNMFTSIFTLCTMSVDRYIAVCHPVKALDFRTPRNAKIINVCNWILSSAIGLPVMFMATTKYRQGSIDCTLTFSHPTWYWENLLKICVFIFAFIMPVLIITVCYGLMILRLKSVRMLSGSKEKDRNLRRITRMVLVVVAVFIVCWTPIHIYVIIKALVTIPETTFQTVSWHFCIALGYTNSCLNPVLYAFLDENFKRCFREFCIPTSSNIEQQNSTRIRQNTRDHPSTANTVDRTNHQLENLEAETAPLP"}, "[6]": {"target": "T8, rat μ opioid receptor (inhibition of adenylyl cyclase) (Rattus norvegicus, UniProt P33535, V245I)", "T8 sequence (P33535 whole entry V245I)": "as the sequence (P33535 whole entry V245I, the tested form may be a part) above"}, "cloned rat μ receptor": {"target": "cloned rat μ receptor (Rattus norvegicus, UniProt P33535, V245I)", "sequence (P33535 whole entry V245I)": "as the sequence (P33535 whole entry V245I, the tested form may be a part) above", "settings": "previously reported; cited from earlier work"}, "[7]": {"target": "T8, rat μ opioid receptor (inhibition of adenylyl cyclase)", "test": "Cyclic AMP assay in transfected CHO cells, naive or chronically morphine-treated", "settings": "for DAMGO/control (forskolin + DAMGO vs forskolin only cAMP): 1 μM DAMGO, 2 μM forskolin; for Intracellular cAMP level, Forskolin + DAMGO: forskolin 2 μM, DAMGO 1 μM"}, "cloned human μ receptor": {"target": "cloned human μ receptor (Homo sapiens, UniProt P35372)", "sequence (P35372 whole entry)": "as the sequence (P35372 whole entry) above", "test": "Saturation binding of [3H]DAMGO, COS-7 membranes expressing cloned human μ receptor (Example XII)", "design": "the cDNA containing the open reading frame of the receptor was cloned downstream of the human cytomegalovirus promoter in the mammalian expression vector pcDNA3; expressed in transfected cells; host or cells: COS-7 (transient)"}, "[8]": {"settings": "cells treated with 1 μM morphine for 24 hours"}}, "data": [{"compound": "C[C@@H](NC(=O)[C@@H](N)Cc1ccc(O)cc1)C(=O)NCC(=O)N(C)[C@@H](Cc1ccccc1)C(=O)NCCO", "note": "[DAMGO, [D-Ala^2, N-Me-Phe^4, Gly-ol^5]-enkephalin]", "values": [{"measurement": "reduction of cAMP levels from control", "setting": "[1]", "value": "18.1±2.5", "unit": "%"}, {"measurement": "increase of GTPase activity", "setting": "mu opioid receptor", "value": 30, "unit": "%"}, {"measurement": "membrane current upon receptor activation (in words)", "setting": "[2]", "value": "an inward current was observed"}, {"measurement": "Bmax", "setting": "rat μ opioid receptor", "value": "~630", "unit": "fmol/mg membrane protein"}, {"measurement": "membrane current upon DAMGO exposure (in words)", "setting": "[3]", "value": "produced an inward membrane current"}, {"measurement": "induction of potassium conductance (in words)", "setting": "[4]", "value": "no potassium conductance was induced"}, {"measurement": "reduction in barium currents through the calcium channel", "setting": "[5]", "value": "over 80%"}, {"measurement": "Bmax", "setting": "human μ opioid receptor", "value": "381±25 fmol/mg of membrane protein"}, {"measurement": "inhibition", "setting": "[6]", "value": "~60", "unit": "%"}, {"measurement": "Bmax", "setting": "cloned rat μ receptor", "value": 444, "unit": "fmol/mg protein"}, {"measurement": "effect on intracellular cAMP level in non-transfected parental CHO cells", "setting": "[7]", "value": "had no effect"}, {"measurement": "DAMGO/control (forskolin + DAMGO vs forskolin only cAMP)", "setting": "[7]; [8]", "value": 42.4, "unit": "%"}, {"measurement": "Intracellular cAMP level, Forskolin + DAMGO", "setting": "[7]; [8]", "value": "38.9 ± 1.4", "unit": "fmol/1 × 10^3 cells"}, {"measurement": "DAMGO/control (forskolin + DAMGO vs forskolin only cAMP)", "setting": "[7]; naive cells", "value": 71.9, "unit": "%"}, {"measurement": "Intracellular cAMP level, Forskolin + DAMGO", "setting": "[7]; naive cells", "value": "25.6 ± 0.3", "unit": "fmol/1 × 10^3 cells"}, {"measurement": "Bmax", "setting": "cloned human μ receptor", "value": 232, "unit": "fmol/mg"}]}]}
